In paper PMC12409578 (ACS Omega, 2025):
Entries after “also recorded” stand apart in the source; their conditions may differ.

How the values were obtained:
[1] = MTT cytotoxicity test on HUVEC cell line; assay type: cell-based; details: human, HUVEC cells (healthy cell line)
Procedure: Cell culture studies were conducted using the previously mentioned method , and HUVEC (healthy cell line) was grown for this study. After the cells were grown, the maximum dose accepted as 100 μM drug concentration was applied to the cell line for all compounds, and cell viability was determined. , The results were illustrated in Table .
The cytotoxic effect of all compounds by MTT analysis was performed to determine the proliferation on the HUVEC cell line. The MTT [3-(4,5-dimethyl-2-thiazol)-2,5-diphenyl-2H-tetrazolium bromide] cytotoxicity assay was employed according to previous studies with minor modifications. −

BChE (from equine serum) = target: T1, BChE (from equine serum) (Equus caballus, UniProt P81908); assay: biochemical; details: for Ki: Lineweaver–Burk plots, mean ± SEM, read-out: BChE K I; for IC50: equine serum BChE, BChI substrate, 37 °C, pH 8.0
T1 construct: BChE (from equine serum); from tissue; host or cells: equine serum
T1 sequence (P81908 whole entry): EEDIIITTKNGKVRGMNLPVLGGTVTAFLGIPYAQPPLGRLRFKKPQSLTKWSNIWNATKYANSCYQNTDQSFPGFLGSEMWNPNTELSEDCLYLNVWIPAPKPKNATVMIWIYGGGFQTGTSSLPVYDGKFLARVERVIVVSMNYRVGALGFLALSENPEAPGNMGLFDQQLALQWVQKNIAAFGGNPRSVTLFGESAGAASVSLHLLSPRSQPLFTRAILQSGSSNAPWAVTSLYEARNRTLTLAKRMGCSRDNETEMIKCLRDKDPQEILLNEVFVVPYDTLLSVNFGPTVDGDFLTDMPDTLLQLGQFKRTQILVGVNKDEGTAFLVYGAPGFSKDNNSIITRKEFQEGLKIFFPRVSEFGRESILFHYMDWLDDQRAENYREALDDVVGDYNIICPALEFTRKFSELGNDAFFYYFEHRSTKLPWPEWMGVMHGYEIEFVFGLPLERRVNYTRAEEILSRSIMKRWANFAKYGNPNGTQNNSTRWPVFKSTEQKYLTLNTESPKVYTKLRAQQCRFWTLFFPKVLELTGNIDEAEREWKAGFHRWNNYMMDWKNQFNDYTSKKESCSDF

AChE (from electric eel) = target: T2, AChE (from electric eel) (Electrophorus electricus, UniProt O42275); assay: biochemical; assay type: biochemical; details: for Ki: Lineweaver–Burk plots, mean ± SEM, read-out: AChE K I; for IC50: electric eel AChE, ATChI substrate, 37 °C, pH 8.0; for selectivity for AChE than for BChE (in words): from K I values / selectivity index
T2 construct: AChE (from electric eel); from tissue
T2 sequence (O42275 24-633): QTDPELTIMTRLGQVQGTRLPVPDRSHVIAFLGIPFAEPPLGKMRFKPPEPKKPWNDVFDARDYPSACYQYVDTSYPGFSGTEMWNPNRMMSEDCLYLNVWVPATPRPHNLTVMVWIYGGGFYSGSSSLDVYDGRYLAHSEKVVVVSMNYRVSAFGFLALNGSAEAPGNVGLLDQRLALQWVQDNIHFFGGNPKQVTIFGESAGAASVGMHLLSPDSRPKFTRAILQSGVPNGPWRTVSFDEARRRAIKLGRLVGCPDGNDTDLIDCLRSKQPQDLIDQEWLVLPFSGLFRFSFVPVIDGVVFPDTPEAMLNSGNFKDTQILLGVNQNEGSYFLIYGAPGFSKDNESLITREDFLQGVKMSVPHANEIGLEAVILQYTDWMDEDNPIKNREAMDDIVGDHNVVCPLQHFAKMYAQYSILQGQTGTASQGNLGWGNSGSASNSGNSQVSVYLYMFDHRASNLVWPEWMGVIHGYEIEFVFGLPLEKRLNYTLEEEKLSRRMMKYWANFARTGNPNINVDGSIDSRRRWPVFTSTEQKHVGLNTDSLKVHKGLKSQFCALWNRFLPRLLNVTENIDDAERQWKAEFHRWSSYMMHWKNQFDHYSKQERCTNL

`COc1ccc(C2=NN(c3nc(-c4ccccc4)cs3)C(c3ccc(C)s3)C2)cc1OC` (stereo not drawn) [Compound 3a, 2-[3-(3,4-Dimethoxyphenyl)-5-(5-methylthiophen-2-yl)-4,5-dihydro-1H-pyrazol-1-yl]-4-phenylthiazole] gave a viability at 24 h, 100 µM [1] of 99.2%, a Ki (BChE (from equine serum)) of 1350 ± 83 nM and an IC50 (BChE (from equine serum)) of 4.3 µM. The “SI (selectivity index) = K I (AChE)/ K I (BChE)” value (“SI (selectivity index) = K I” below) (AChE (from electric eel)) was 0.660, the Ki (AChE (from electric eel)) was 886 ± 54 nM and the IC50 (AChE (from electric eel)) was 2.85 µM.
With `COc1ccc(C2=NN(c3nc(-c4ccc(C)cc4)cs3)C(c3ccc(C)s3)C2)cc1OC` (stereo not drawn) [Compound 3b, 2-[3-(3,4-Dimethoxyphenyl)-5-(5-methylthiophen-2-yl)-4,5-dihydro-1H-pyrazol-1-yl]-4-(4-methylphenyl)thiazole] the viability at 24 h, 100 µM [1] was 133%, the Ki (BChE (from equine serum)) was 2220 ± 132 nM and the IC50 (BChE (from equine serum)) was 4.15 µM. For the same molecule, the “SI (selectivity index) = K I” value (AChE (from electric eel)) was 0.361, the Ki (AChE (from electric eel)) was 804 ± 62 nM and the IC50 (AChE (from electric eel)) was 4.01 µM. For the same molecule, the “selectivity for AChE than for BChE (in words)” value (from here on “selectivity for AChE than”) (AChE (from electric eel)) was “more significant selectivity”.
`COc1ccc(-c2csc(N3N=C(c4ccc(OC)c(OC)c4)CC3c3ccc(C)s3)n2)cc1` (stereo not drawn) [Compound 3c, 2-[3-(3,4-Dimethoxyphenyl)-5-(5-methylthiophen-2-yl)-4,5-dihydro-1H-pyrazol-1-yl]-4-(4-methoxyphenyl)thiazole] showed a viability at 24 h, 100 µM [1] of 97.2%, a Ki (BChE (from equine serum)) of 1160 ± 62 nM and an IC50 (BChE (from equine serum)) of 3.07 µM. For the same molecule, the “SI (selectivity index) = K I” value (AChE (from electric eel)) was 1.016, the Ki (AChE (from electric eel)) was 1180 ± 83 nM and the IC50 (AChE (from electric eel)) was 4.81 µM.
In the case of `COc1ccc(C2=NN(c3nc(-c4ccc(Cl)cc4)cs3)C(c3ccc(C)s3)C2)cc1OC` (stereo not drawn) [Compound 3d, 2-[3-(3,4-Dimethoxyphenyl)-5-(5-methylthiophen-2-yl)-4,5-dihydro-1H-pyrazol-1-yl]-4-(4-chlorophenyl)thiazole], the viability at 24 h, 100 µM [1] is reported as 126%, the Ki (BChE (from equine serum)) is reported as 1640 ± 85 nM and the IC50 (BChE (from equine serum)) is reported as 6.03 µM. For the same molecule, the “SI (selectivity index) = K I” value (AChE (from electric eel)) was 0.074, the Ki (AChE (from electric eel)) was 121 ± 7 nM and the IC50 (AChE (from electric eel)) was 0.523 µM. For the same molecule, the “selectivity for AChE than” value (AChE (from electric eel)) was “more significant selectivity”.
Molecule `COc1ccc(C2=NN(c3nc(-c4ccc(F)cc4)cs3)C(c3ccc(C)s3)C2)cc1OC` (stereo not drawn) [Compound 3e, 2-[3-(3,4-Dimethoxyphenyl)-5-(5-methylthiophen-2-yl)-4,5-dihydro-1H-pyrazol-1-yl]-4-(4-fluorophenyl)thiazole] has a viability at 24 h, 100 µM [1] of 118%, a Ki (BChE (from equine serum)) of 1720 ± 150 nM and an IC50 (BChE (from equine serum)) of 3.32 µM. The “SI (selectivity index) = K I” value (AChE (from electric eel)) was 0.082, the Ki (AChE (from electric eel)) was 143 ± 84 nM and the IC50 (AChE (from electric eel)) was 0.385 µM. The “selectivity for AChE than” value (AChE (from electric eel)) was “more significant selectivity”.
For `COc1ccc(C2=NN(c3nc(-c4ccc([N+](=O)[O-])cc4)cs3)C(c3ccc(C)s3)C2)cc1OC` (stereo not drawn) [Compound 3f, 2-[3-(3,4-Dimethoxyphenyl)-5-(5-methylthiophen-2-yl)-4,5-dihydro-1H-pyrazol-1-yl]-4-(4-nitrophenyl)thiazole], the viability at 24 h, 100 µM [1] was 86%, the Ki (BChE (from equine serum)) was 1460 ± 71 nM and the IC50 (BChE (from equine serum)) was 4.25 µM. The “SI (selectivity index) = K I” value (AChE (from electric eel)) was 0.039, the Ki (AChE (from electric eel)) was 57 ± 3 nM and the IC50 (AChE (from electric eel)) was 0.382 µM. For the same molecule, the “selectivity for AChE than” value (AChE (from electric eel)) was “highest selectivity for AChE; also recorded: more significant selectivity”.
Work on `COc1ccc(C2=NN(c3nc(-c4ccc(C#N)cc4)cs3)C(c3ccc(C)s3)C2)cc1OC` (stereo not drawn) [Compound 3g, 2-[3-(3,4-Dimethoxyphenyl)-5-(5-methylthiophen-2-yl)-4,5-dihydro-1H-pyrazol-1-yl]-4-(4-cyanophenyl)thiazole] yielded a viability at 24 h, 100 µM [1] of 94%, a Ki (BChE (from equine serum)) of 789 ± 56 nM and an IC50 (BChE (from equine serum)) of 2.09 µM. The “SI (selectivity index) = K I” value (AChE (from electric eel)) was 0.057, the Ki (AChE (from electric eel)) was 45 ± 2 nM and the IC50 (AChE (from electric eel)) was 0.338 µM. The “selectivity for AChE than” value (AChE (from electric eel)) was “highest selectivity for AChE; also recorded: more significant selectivity”.
With `COc1ccc(C2=NN(c3nc(-c4ccc(Cl)cc4Cl)cs3)C(c3ccc(C)s3)C2)cc1OC` (stereo not drawn) [Compound 3h, 2-[3-(3,4-Dimethoxyphenyl)-5-(5-methylthiophen-2-yl)-4,5-dihydro-1H-pyrazol-1-yl]-4-(2,4-dichlorophenyl)thiazole] the viability at 24 h, 100 µM [1] was 138%, the Ki (BChE (from equine serum)) was 1690 ± 82 nM and the IC50 (BChE (from equine serum)) was 4.99 µM. The “SI (selectivity index) = K I” value (AChE (from electric eel)) was 0.655, the Ki (AChE (from electric eel)) was 1100 ± 58 nM and the IC50 (AChE (from electric eel)) was 5.46 µM.
`COc1ccc(C2=NN(c3nc(-c4ccc(F)cc4F)cs3)C(c3ccc(C)s3)C2)cc1OC` (stereo not drawn) [Compound 3i, 2-[3-(3,4-Dimethoxyphenyl)-5-(5-methylthiophen-2-yl)-4,5-dihydro-1H-pyrazol-1-yl]-4-(2,4-difluorophenyl)thiazole] gave a viability at 24 h, 100 µM [1] of 86.4%, a Ki (BChE (from equine serum)) of 1590 ± 78 nM and an IC50 (BChE (from equine serum)) of 7.37 µM. The “SI (selectivity index) = K I” value (AChE (from electric eel)) was 0.332, the Ki (AChE (from electric eel)) was 529 ± 34 nM and the IC50 (AChE (from electric eel)) was 6.42 µM.
Work on `COc1ccc(C2=NN(c3nc(-c4cccc([N+](=O)[O-])c4)cs3)C(c3ccc(C)s3)C2)cc1OC` (stereo not drawn) [Compound 3j, 2-[3-(3,4-Dimethoxyphenyl)-5-(5-methylthiophen-2-yl)-4,5-dihydro-1H-pyrazol-1-yl]-4-(3-nitrophenyl)thiazole] yielded a viability at 24 h, 100 µM [1] of 102%, a Ki (BChE (from equine serum)) of 2370 ± 114 nM and an IC50 (BChE (from equine serum)) of 4.92 µM. The “SI (selectivity index) = K I” value (AChE (from electric eel)) was 0.178, the Ki (AChE (from electric eel)) was 423 ± 23 nM and the IC50 (AChE (from electric eel)) was 4.03 µM. The “selectivity for AChE than” value (AChE (from electric eel)) was “more significant selectivity”.
